Drawing on patent publication US20240343733A1, “COMPOUNDS FOR TARGETING DEGRADATION OF IRAK4 PROTEINS” (BIOGEN MA INC., priority 2021, published 2024), this text covers DC50 for 19 compounds.

This test addresses T1, IRAK4 (Homo sapiens, UniProt Q9NWZ3).
T1 construct: 293Tcells expressing HiBiT-tagged IRAK4 were then added into 384-well plates
T1 sequence (Q9NWZ3 1-460): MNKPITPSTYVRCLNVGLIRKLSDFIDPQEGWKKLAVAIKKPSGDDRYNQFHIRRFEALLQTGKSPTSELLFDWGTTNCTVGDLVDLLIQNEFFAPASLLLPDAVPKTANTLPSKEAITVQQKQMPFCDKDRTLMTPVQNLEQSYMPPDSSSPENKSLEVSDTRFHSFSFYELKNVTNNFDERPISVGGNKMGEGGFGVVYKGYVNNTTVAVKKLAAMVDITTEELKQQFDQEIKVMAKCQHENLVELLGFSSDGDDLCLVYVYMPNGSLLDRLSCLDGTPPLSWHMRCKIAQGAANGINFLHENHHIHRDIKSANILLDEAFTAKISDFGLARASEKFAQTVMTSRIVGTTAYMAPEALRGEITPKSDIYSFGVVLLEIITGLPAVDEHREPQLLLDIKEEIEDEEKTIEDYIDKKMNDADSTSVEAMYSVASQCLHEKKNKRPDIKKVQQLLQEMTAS
Nature of the test: IRAK4 Degradation Assay, HiBiT Method. The class given is cell-based. Particulars: 293T cells expressing HiBiT-tagged IRAK4, 6 hours. The gist of the method: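 293T cells with HiBiT knocked in at the C-terminus of endogenous IRAK4, 10,000 per well, treated 6 h at 37 °C with an 11-point half-log series ([…]), in duplicate. Remaining IRAK4 read by Nano-Glo HiBiT lytic luminescence against DMSO-only and media-only controls.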
(The HiBiT peptide binds its large partner to form an active luciferase.)
Usually DC50 stands for the concentration giving 50% degradation. Low values mean degradation at low concentration, high ones degradation only at high concentration. `CC(C)Oc1cc2nc([C@H]3CC[C@H](CN(C)C4CCN(c5cccc6c5n(C)c(=O)n6C5CCC(=O)NC5=O)CC4)CC3)cn2cc1C(=O)Nc1cccc(C(F)F)n1` (stereo partly shown) [Example 21, N-[6-(difluoromethyl)-2-pyridyl]-2-[4-[[[1-[1-(2,6-dioxo-3-piperidyl)-3-methyl-2-oxo-benzimidazol-4-yl]-4-piperidyl]-methyl-amino]methyl]cyclohexyl]-7-isopropoxy-imidazo[1,2-a]pyridine-6-carboxamide] returned a DC50 of 0.01 to 0.1 µM.
In the case of `CC(C)Oc1cc2nc([C@H]3CC[C@H](C(=O)NC4CCN(c5ccc(C6CCC(=O)NC6=O)cn5)CC4)CC3)cn2cc1C(=O)Nc1cnn2cccnc12` (stereo partly shown) [Example 182, 2-((1r,4r)-4-((1-(5-(2,6-dioxopiperidin-3-yl)pyridin-2-yl)piperidin-4-yl)carbamoyl)cyclohexyl)-7-isopropoxy-N-(pyrazolo[1,5-a]pyrimidin-3-yl)imidazo[,2-a]pyridine-6-carboxamide] it was < 0.01 µM; in that of `CC(C)Oc1cc2nn([C@H]3CC[C@H](CN4CCC(c5cc6c(cc5F)c(N5CCC(=O)NC5=O)nn6C)CC4)CC3)cc2cc1C(=O)Nc1cccn([C@H]2C[C@H]2F)c1=O` [Example 130, 2-((1r,4S)-4-((4-(3-(2,4-dioxotetrahydropyrimidin-1(2H)-yl)-5-fluoro-1-methyl-1H-indazol-6-yl)piperidin-1-yl)methyl)cyclohexyl)-N-(1-((1S,2R)-2-fluorocyclopropyl)-2-oxo-1,2-dihydropyridin-3-yl)-6-isopropoxy-2H-indazole-5-carboxamide], < 0.01 µM; in that of `CC(C)Oc1cc2nc([C@H]3CC[C@H](CN(C)C4CCN(Cc5ccc(NC6CCC(=O)NC6=O)cc5)CC4)CC3)cn2cc1C(=O)Nc1cccc(C(F)(F)F)n1` (stereo partly shown) [Example 8, 2-[4-[[[1-[[4-[(2,6-dioxo-3-piperidyl)amino]phenyl]methyl]-4-piperidyl]-methyl-amino]methyl]cyclohexyl]-7-isopropoxy-N-[6-(trifluoromethyl)-2-pyridyl]imidazo[1,2-a]pyridine-6-carboxamide], > 1 µM.
Next, `CC(C)Oc1cc2nn([C@H]3CC[C@H](CN4CC[C@H](c5ccc6c(N7CCC(=O)NC7=O)nn(C)c6c5)[C@H](O)C4)CC3)cc2cc1C(=O)Nc1cccn(C2C[C@H]2F)c1=O` (stereo partly drawn) [Example 116, 2-((1S,4S)-4-(((3S,4R)-4-(3-(2,4-dioxotetrahydropyrimidin-1(2H)-yl)-1-methyl-1H-indazol-6-yl)-3-hydroxypiperidin-1-yl)methyl)cyclohexyl)-N-(1-((1S,2R)-2-fluorocyclopropyl)-2-oxo-1,2-dihydropyridin-3-yl)-6-isopropoxy-2H-indazole-5-carboxamide]: < 0.01 µM; `CC(C)Oc1cc2nn(C3CCN(C(=O)CC4(O)CCN(c5cc(F)c(C6CCC(=O)NC6=O)cc5F)CC4)CC3)cc2cc1C(=O)Nc1cnn2cccnc12` (stereo not shown) [Example 57, 2-(1-(2-(1-(4-(2,6-dioxopiperidin-3-yl)-2,5-difluorophenyl)-4-hydroxypiperidin-4-yl)acetyl)piperidin-4-yl)-6-isopropoxy-N-(pyrazolo[1,5-a]pyrimidin-3-yl)-2H-indazole-5-carboxamide]: < 0.01 µM.
Next, `CC(C)Oc1cc2nn([C@H]3CC[C@H](CN4CCOC[C@@H]4Cc4ccc(OC5CCC(=O)NC5=O)cc4)CC3)cc2cc1C(=O)Nc1cccn([C@H]2C[C@H]2F)c1=O` (stereo partly drawn) [Example 135, 2-((1S,4S)-4-(((3S)-3-(4-((2,6-dioxopiperidin-3-yl)oxy)benzyl)morpholino)methyl)cyclohexyl)-N-(1-((1S,2R)-2-fluorocyclopropyl)-2-oxo-1,2-dihydropyridin-3-yl)-6-isopropoxy-2H-indazole-5-carboxamide]: < 0.01 µM; `CC(C)Oc1cc2nc([C@H]3CC[C@H](CN4CCC(c5ccc(C6CCC(=O)NC6=O)cc5)CC4)CC3)cn2cc1C(=O)Nc1cccc(C(F)(F)F)n1` (stereo partly shown) [Example 4, 2-[4-[[4-[4-(2,6-dioxo-3-piperidyl)phenyl]-1-piperidyl]methyl]cyclohexyl]-7-isopropoxy-N-[6-(trifluoromethyl)-2-pyridyl]imidazo[1,2-a]pyridine-6-carboxamide]: 0.5 to 1 µM; `CC(C)Oc1cc2nc([C@H]3CC[C@H](CN4CCC(c5ccc(NC6CCC(=O)NC6=O)cc5)CC4)CC3)cn2cc1C(=O)Nc1cccc(C(F)(F)F)n1` (stereo partly shown) [Example 2, 2-[4-[[4-[4-[(2,6-dioxo-3-piperidyl)amino]phenyl]-1-piperidyl]methyl]cyclohexyl]-7-isopropoxy-N-[6-(trifluoromethyl)-2-pyridyl]imidazo[1,2-a]pyridine-6-carboxamide]: 0.01 to 0.1 µM.
Compound `CC(C)Oc1cc2nc([C@H]3CC[C@H](CN4CCC(c5cc6c(cc5F)c(N5CCC(=O)NC5=O)nn6C)C(F)(F)C4)CC3)cn2cc1C(=O)Nc1cccn([C@H]2C[C@H]2F)c1=O` (stereo partly shown) [Example 172, 2-((1r, 4S)-4-((4-(3-(2,4-dioxotetrahydropyrimidin-1 (2H)-yl)-5-fluoro-1-methyl-1H-indazol-6-yl)-3,3-difluoropiperidin-1-yl)methyl)cyclohexyl)-N-(1-((1 S, 2R)-2-fluorocyclopropyl)-2-oxo-1,2-dihydropyridin-3-yl)-7-isopropoxyimidazo[1,2-a]pyridine-6-carboxamide] registered a DC50 of 0.01 to 0.1 µM.
In the case of `CC(C)Oc1cc2nc(C3CCN(C(=O)CC4CCN(c5cnc(C6CCC(=O)NC6=O)cn5)CC4)CC3)cn2cc1C(=O)Nc1cccn([C@H]2C[C@H]2F)c1=O` (stereo partly shown) [Example 189] it was < 0.01 µM; in that of `CC(C)Oc1cc2nn([C@H]3CC[C@H](CN4CC[C@@H](c5ccc6c(C7CCC(=O)NC7=O)nn(C)c6c5)[C@@H](O)C4)CC3)cc2cc1C(=O)Nc1cccn([C@H]2C[C@H]2F)c1=O` (stereo partly drawn) [Example 133, 2-((1R,4S)-4-(((3R,4S)-4-(3-(2,6-dioxopiperidin-3-yl)-1-methyl-1H-indazol-6-yl)-3-hydroxypiperidin-1-yl)methyl)cyclohexyl)-N-(1-((1S,2R)-2-fluorocyclopropyl)-2-oxo-1,2-dihydropyridin-3-yl)-6-isopropoxy-2H-indazole-5-carboxamide], < 0.01 µM; in that of `CC(C)Oc1cc2nc([C@H]3CC[C@H](CN4CCC(c5ccc(NC6CCC(=O)NC6=O)cc5)C(F)(F)C4)CC3)cn2cc1C(=O)Nc1cccc(C(F)F)n1` (stereo partly shown) [Example 36, N-[6-(difluoromethyl)-2-pyridyl]-2-[4-[[4-[4-[(2,6-dioxo-3-piperidyl)amino]phenyl]-3,3-difluoro-1-piperidyl]methyl]cyclohexyl]-7-isopropoxy-imidazo[1,2-a]pyridine-6-carboxamide], 0.1 to 0.5 µM.
For the compound `CC(C)Oc1cc2nc([C@H]3CC[C@H](CN(C)C4CCN(Cc5cccc(NC6CCC(=O)NC6=O)c5)CC4)CC3)cn2cc1C(=O)Nc1cccc(C(F)(F)F)n1` (stereo partly shown) [Example 14, 2-[4-[[[1-[[3-[(2,6-dioxo-3-piperidyl)amino]phenyl]methyl]-4-piperidyl]-methyl-amino]methyl]cyclohexyl]-7-isopropoxy-N-[6-(trifluoromethyl)-2-pyridyl]imidazo[1,2-a]pyridine-6-carboxamide], the DC50 was in the range of 0.5 to 1 µM.
For `CC(C)Oc1cc2nc([C@H]3CC[C@H](CN4CCC(c5ccc(C6(F)CCC(=O)NC6=O)cc5)CC4)CC3)cn2cc1C(=O)Nc1cccc(C(F)F)n1` (stereo partly shown) [Example 45, N-[6-(difluoromethyl)-2-pyridyl]-2-[4-[[4-[4-(3-fluoro-2,6-dioxo-3-piperidyl)phenyl]-1-piperidyl]methyl]cyclohexyl]-7-isopropoxy-imidazo[1,2-a]pyridine-6-carboxamide], the 50% degradation concentration (DC50) lay in the range of 0.1 to 0.5 µM.
In the case of `CC(C)Oc1cc2nc([C@H]3CC[C@H](CN4CCC(c5ccc(N6CCC(=O)NC6=O)cc5)CC4)CC3)cn2cc1C(=O)Nc1cccc(C(F)F)n1` [Example 39, N-[6-(difluoromethyl)-2-pyridyl]-2-[4-[[4-[4-(2,4-dioxohexahydropyrimidin-1-yl)phenyl]-1-piperidyl]methyl]cyclohexyl]-7-isopropoxy-imidazo[1,2-a]pyridine-6-carboxamide] it was 0.01 to 0.1 µM.
Next, `CC(C)Oc1cc2nn([C@H]3CC[C@H](CN4CC[C@@H](c5ccc6c(N7CCC(=O)NC7=O)nn(C)c6c5)[C@H](O)C4)CC3)cc2cc1C(=O)Nc1cccn([C@H]2C[C@H]2F)c1=O` [Example 132, 2-((1S,4S)-4-(((3S,4S)-4-(3-(2,4-dioxotetrahydropyrimidin-1(2H)-yl)-1-methyl-1H-indazol-6-yl)-3-hydroxypiperidin-1-yl)methyl)cyclohexyl)-N-(1-((1S,2R)-2-fluorocyclopropyl)-2-oxo-1,2-dihydropyridin-3-yl)-6-isopropoxy-2H-indazole-5-carboxamide]: < 0.01 µM.
In the case of `CC(C)Oc1nc2nc(C3CCN(C(=O)N(C)C4CCN(c5ncc(C6CCC(=O)NC6=O)cc5F)CC4)CC3)cn2cc1C(=O)Nc1cccn(C2CC2)c1=O` (stereo not shown) [Example 195] it was 0.01 to 0.1 µM.
In turn, `CC(C)Oc1cc2nn(C3CCN(C(=O)CC4(O)CCN(c5ccc(NC6CCC(=O)NC6=O)cc5F)CC4)CC3)cc2cc1C(=O)Nc1cccc(C(F)(F)F)n1` (stereo not shown) [Example 59, 2-[1-[2-[1-[4-[(2,6-dioxo-3-piperidyl)amino]-2-fluoro-phenyl]-4-hydroxy-4-piperidyl]acetyl]-4-piperidyl]-6-isopropoxy-N-[6-(trifluoromethyl)-2-pyridyl]indazole-5-carboxamide] registered a 50% degradation concentration (DC50) of 0.01 to 0.1 µM.
